{"source": "patent US9283281B2", "about": "“Preparation of triple responsive nanogel system and its application” (University of South Carolina, priority 2013, dated 2016)", "tested_on": "UMSCC22A cells", "test": "Cell death after PDT by propidium iodide fluorometry", "format": "cell-based", "conditions": "after irradiation; after 5 h of PDT", "procedure": "After exposure to red light, cells were incubated for various periods of time prior to analysis.\nCell death was assessed by propidium iodide (PI) fluorometry using a multi-well fluorescence plate reader, as previously described. Human head and neck cancer cells (UMSCC22A) were plated on 96-well plates (15,000 cells/well) in Dulbecco's Modified Eagle's Medium (DMEM) (Gibco) supplemented with 10% fetal bovine serum (FBS) and penicillin/streptomycin (complete culture medium) in a humidified 37° C. incubator at 5% CO2/95% air. […] Before exposure to light, cells were changed to fresh medium supplemented with PI (30 μM) and Insulin-Transferrin-Selenium-X (ITX) reagent [insulin (10 μg/ml), transferrin (5.5 μg/m), selenium (6.7 ng/ml), ethanolamine (0.2 mg/ml)] (Gibco) but omitting FBS. PI fluorescence was measured at frequent intervals using 530 nm excitation (25 nm band pass) and 620 nm emission (40 nm band pass) filters. Between measurements, microtiter plates were placed in a 37° C. incubator. At the end of the experiment, digitonin (200 μM) was added to each well to permeabilize all cells and label all nuclei with PI. Cell viability determined by PI fluorometry is essentially the same as cell viability determined by trypan blue exclusion.", "data": [{"substance": "Silicon phthalocyanine [Pc 4]", "values": [{"measurement": "cell killing", "result": 35, "unit": "%"}]}]}
